Data as given in US6825230B2, “Spiro and dispiro 1,2,4-trixolane antimalarials” (Medicines for Malaria Venture MMV, priority 2002, dated 2004).
Converted amounts (≈) assume the structure as drawn.

Assays:
[1] = test system: chloroquine-resistant K1 strain of P. falciparum; test: In vitro antimalarial semiautomated microdilution assay ([3H]-hypoxanthine incorporation), K1 strain; assay type: cell-based, Plasmodium falciparum; details: Plasmodium falciparum, K1, 72 h, read-out: IC50 (ng/ml) K1, chloroquine-resistant K1 strain, 72 h incubation
How it was run: (§1)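 Asynchronous stock-culture parasites (intraerythrocytic forms), serial compound dilutions; readout [3H]-hypoxanthine uptake; IC50 via Logit regression.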

[2] = test system: chloroquine-sensitive NF54 strain of P. falciparum; test: In vitro antimalarial semiautomated microdilution assay ([3H]-hypoxanthine incorporation), NF54 strain; assay type: cell-based, Plasmodium falciparum; details: Plasmodium falciparum, NF54, 72 h, read-out: IC50 (ng/ml) NF54, chloroquine-sensitive NF54 strain, 72 h incubation
How it was run: as §1

[3] = test system: ANKA strain of P. berghei; test: Single dose STI in vivo screen in infected mice; set-up: species or system Plasmodium berghei; details: for Survival (days) 10 mg/kg po: single 10 mg/kg po in 3% ethanol and 7% Tween 80; for Survival (days) 10 mg/kg po / Survival (days) 10 mg/kg SSV po / Survival (days) 10 mg/kg sc: untreated 6-7 days; for Activity (%) 10 mg/kg po: single 10 mg/kg po in 3% ethanol and 7% Tween 80 on day 1 post-infection; for Activity (%) 10 mg/kg po / Activity (%) 10 mg/kg SSV po / Activity (%) 10 mg/kg sc: percent reduction in parasitemia on day 3; for Survival (days) 10 mg/kg SSV po: single 10 mg/kg po in SSV; for Activity (%) 10 mg/kg SSV po: single 10 mg/kg po in standard suspending vehicle (SSV) on day 1 post-infection; for Survival (days) 10 mg/kg sc: single 10 mg/kg sc in 3% ethanol and 7% Tween 80; for Activity (%) 10 mg/kg sc: single 10 mg/kg sc in 3% ethanol and 7% Tween 80 on day 1 post-infection

C(CNC1CCC2(CC1)OOC1(O2)C2CC3CC(C2)CC1C3)CN1CCOCC1 (stereo not shown) [OZ161]
IC50 [1]: 0.4 ng/mL (≈ 0.000984 µM)
IC50 [2]: 0.5 ng/mL (≈ 0.00123 µM)
Survival (days) 10 mg/kg po [3]: 7.0 days
Activity (%) 10 mg/kg po [3]: 59%
Survival (days) 10 mg/kg SSV po [3]: 6.7 days
Activity (%) 10 mg/kg SSV po [3]: 46%
Survival (days) 10 mg/kg sc [3]: 12.7 days
Activity (%) 10 mg/kg sc [3]: 99.96%

CCOC(=O)c1ccc([C@H]2CC[C@]3(CC2)OOC2(O3)C3CC4CC(C3)CC2C4)cc1 (stereo partly shown) [OZ164]
IC50 [1]: 9 ng/mL (≈ 0.0218 µM)
IC50 [2]: > 10 ng/mL
Activity (%) 10 mg/kg po [3]: 11%
Survival (days) 10 mg/kg SSV po [3]: 5.7 days
Activity (%) 10 mg/kg SSV po [3]: 0%
Activity (%) 10 mg/kg sc [3]: 7%

O=C(O)c1ccc([C@H]2CC[C@]3(CC2)OOC2(O3)C3CC4CC(C3)CC2C4)cc1 (stereo partly shown) [OZ165]
IC50 [1]: 39 ng/mL (≈ 0.101 µM)
IC50 [2]: > 10 ng/mL
Survival (days) 10 mg/kg po [3]: 6.3 days
Activity (%) 10 mg/kg po [3]: 18%
Survival (days) 10 mg/kg SSV po [3]: 6.0 days
Activity (%) 10 mg/kg SSV po [3]: 3%
Survival (days) 10 mg/kg sc [3]: 5.7 days
Activity (%) 10 mg/kg sc [3]: 9%

CCOC(=O)c1ccc(OC[C@H]2CC[C@]3(CC2)OOC2(O3)C3CC4CC(C3)CC2C4)cc1 (stereo partly shown) [OZ166]
IC50 [1]: 28 ng/mL (≈ 0.0633 µM)
IC50 [2]: > 10 ng/mL
Survival (days) 10 mg/kg po [3]: 6.7 days
Activity (%) 10 mg/kg po [3]: 11%
Survival (days) 10 mg/kg SSV po [3]: 6.3 days
Activity (%) 10 mg/kg SSV po [3]: 0%
Survival (days) 10 mg/kg sc [3]: 5.7 days
Activity (%) 10 mg/kg sc [3]: 4%

O=C1c2ccccc2C(=O)N1C[C@H]1CC[C@@]2(CC1)OOC1(O2)C2CC3CC(C2)CC1C3 (stereo partly shown) [OZ167]
IC50 [1]: 6.7 ng/mL (≈ 0.0158 µM)
IC50 [2]: > 10 ng/mL
Survival (days) 10 mg/kg po [3]: 6.0 days
Activity (%) 10 mg/kg po [3]: 0%
Survival (days) 10 mg/kg SSV po [3]: 6.0 days
Activity (%) 10 mg/kg SSV po [3]: 6%
Survival (days) 10 mg/kg sc [3]: 7.3 days
Activity (%) 10 mg/kg sc [3]: 97%

CC1(C)CC(NC2CCC3(CC2)OOC2(O3)C3CC4CC(C3)CC2C4)CC(C)(C)N1 (stereo not shown) [OZ171]
IC50 [1]: 1.3 ng/mL (≈ 0.00311 µM)
IC50 [2]: 1.4 ng/mL (≈ 0.00334 µM)
Survival (days) 10 mg/kg po [3]: 9.0 days
Activity (%) 10 mg/kg po [3]: 98%
Survival (days) 10 mg/kg SSV po [3]: 7.0 days
Activity (%) 10 mg/kg SSV po [3]: 85%
Survival (days) 10 mg/kg sc [3]: 9.7 days
Activity (%) 10 mg/kg sc [3]: 99.94%

N=C(N)NN=C1CCC2(CC1)OOC1(O2)C2CC3CC(C2)CC1C3 (stereo not shown) [OZ172]
IC50 [1]: 3.5 ng/mL (≈ 0.0105 µM)
IC50 [2]: 5 ng/mL (≈ 0.015 µM)
Survival (days) 10 mg/kg po [3]: 8.0 days
Activity (%) 10 mg/kg po [3]: 68%
Survival (days) 10 mg/kg SSV po [3]: 10.3 days
Activity (%) 10 mg/kg SSV po [3]: 82%
Survival (days) 10 mg/kg sc [3]: 10.3 days
Activity (%) 10 mg/kg sc [3]: 100%

COCC(=O)N(Cc1ccccc1)C1CCC2(CC1)OOC1(O2)C2CC3CC(C2)CC1C3 (stereo not shown) [OZ173]
IC50 [1]: 58 ng/mL (≈ 0.131 µM)
IC50 [2]: 32 ng/mL (≈ 0.0725 µM)
Survival (days) 10 mg/kg po [3]: 7.0 days
Activity (%) 10 mg/kg po [3]: 15%
Survival (days) 10 mg/kg SSV po [3]: 6.7 days
Activity (%) 10 mg/kg SSV po [3]: 0%
Survival (days) 10 mg/kg sc [3]: 9.7 days
Activity (%) 10 mg/kg sc [3]: 80%

COCC(=O)N(C1CCCCC1)C1CCC2(CC1)OOC1(O2)C2CC3CC(C2)CC1C3 (stereo not shown) [OZ174]
IC50 [1]: 27 ng/mL (≈ 0.0623 µM)
IC50 [2]: 34 ng/mL (≈ 0.0784 µM)
Survival (days) 10 mg/kg po [3]: 6.7 days
Activity (%) 10 mg/kg po [3]: 0%
Survival (days) 10 mg/kg SSV po [3]: 7.3 days
Activity (%) 10 mg/kg SSV po [3]: 15%
Survival (days) 10 mg/kg sc [3]: 10.3 days
Activity (%) 10 mg/kg sc [3]: 90%
